The results in this text go back to ChEMBL document CHEMBL1152832, “Quantitative structure-activity relationship (QSAR) of aryl alkenyl amides/imines for bacterial efflux pump inhibitors” (2009).

Values after ≈ are worked out from the molar mass of the structure shown. Active and inactive are the calls of the source. The rule behind the calls is not given here.

One test relates to Staphylococcus aureus. The test is described as follows: microbe, parasite or virus in culture. Particulars: ATCC 29213, 24 h.
Description: Antibacterial activity against Staphylococcus aureus ATCC 29213 after 24 hrs
`O=C(O)c1cn(C2CC2)c2cc(N3CCNCC3)c(F)cc2c1=O` [CIPROFLOXACIN] had an MIC of 0.25 µg/mL (≈ 0.754 µM).

Another test has as its system Staphylococcus aureus. The test is described as follows: Inhibition of multidrug resistance efflux pump in Staphylococcus aureus ATCC 29213 assessed as potentiation factor measured by reduction in weighted average of ciprofloxacin MIC by serial dilution method.
Settings: not given
With `CC(/C=C/C(=O)NC(C)c1ccc(Br)cc1)=C\c1ccc2c(c1)OCO2` (stereo not drawn), the PF was 380 and the logPF stood at 2.58.

With `CCC(/C=N/C(CC)CO)=C\c1ccc2c(c1)OCO2` (stereo not drawn), the PF was 150 and the logPF is 2.18.

On to `CCC(/C=C/C(=O)N1CCC(O)CC1)=C\c1ccc2c(c1)OCO2`, for which the PF amounted to 210 and the logPF is 2.32.

Turning to `CCCCC(/C=C/C(=O)N1CCC(O)CC1)=C\c1ccc2c(c1)OCO2`, the PF came out at 70 and the logPF came to 1.85.

As for `CCCC(/C=C/C(=O)N1CCN(C)CC1)=C\c1ccc(OC)cc1`, the PF turned out to be 130 and the logPF stood at 2.11.

As to `CCCC(/C=C/C(=O)O)=C\c1ccc2c(c1)OCO2`, the PF result is “inactive” and the logPF result is “inactive”.

For the compound `CC(/C=C/C(=O)O)=C\c1ccc2c(c1)OCO2`, the PF came to 10 and the logPF is 1.

`CCCCC(/C=N/C(CC)CO)=C\c1ccc(OC)cc1` (stereo not drawn): the PF is 100 and the logPF came out at 2.

Take `CCC(CCCC(=O)NCC(=O)NCC(=O)OC)Cc1ccc2c(c1)OCO2` (stereo not drawn): the PF was 70 and the logPF amounted to 1.85.

As for `CCC(/C=C/C(=O)N1CCN(C)CC1)=C\c1ccc2c(c1)OCO2`, the PF was found to be 130 and the logPF was 2.11.

For the compound `CC(=O)CNC(=O)CC(=O)/C=C/C(C)=C/c1ccc2c(c1)OCO2`, the PF was found to be 310 and the logPF came out at 2.49.

On to `CCC(/C=C/C(=O)NCC(=O)OC)=C\c1ccc2c(c1)OCO2`, for which the PF came to 290 and the logPF was found to be 2.46.

For `CCC(/C=C/C(=O)Nc1ccccc1)=C\c1ccccc1`, the PF was 210 and the logPF was found to be 2.32.

Regarding `C(/C=C/c1ccc2c(c1)OCO2)=C\CN1CCCCC1`, the PF stood at 30 and the logPF turned out to be 1.48.

`CCC(/C=C/C(=O)N1CCCCC1)=C\c1ccc2c(c1)OCO2`: the PF turned out to be 240 and the logPF worked out at 2.38.

`CCC(/C=C/C(=O)N[C@@](C)(O)c1ccccc1)=C\c1ccc2c(c1)OCO2`: the PF is 30 and the logPF was 1.48.

As to `CCCCC(/C=N/O)=C\c1ccc(OC)cc1`, the PF was 100 and the logPF is 2.

Take `CCCC(/C=C/C(=O)N1CCCCC1)=C\c1ccc2c(c1)OCO2`: the PF is 210 and the logPF came out at 2.32.

As to `CCC(/C=C/C(=O)NC(C)C=O)=C\c1ccc2c(c1)OCO2` (stereo not drawn), the PF worked out at 30 and the logPF was 1.48.

For the compound `CCC(CO)NC(=O)/C=C/C(C)=C/c1ccc2c(c1)OCO2` (stereo not drawn), the PF turned out to be 30 and the logPF was 1.48.

In the case of `CCCCC(/C=N/c1ccccc1C(=O)O)=C\c1ccc(OC)cc1`, the PF was determined as 100 and the logPF worked out at 2.

As for `CCC(CCC(=O)NCC(C)C)Cc1ccc2c(c1)OCO2` (stereo not drawn), the PF was 70 and the logPF was found to be 1.85.

Take `COc1cc(/C=C(C)/C=C/C(=O)N2CCCCC2)ccc1O`: the PF is 10 and the logPF was 1.

Turning to `CCC(/C=C/C(=O)N1CCCC1)=C\c1ccc2c(c1)OCO2`, the PF came to 90 and the logPF came out at 1.95.

For the compound `CCCCCCC(/C=C/C(=O)N1CCCCC1)=C\c1ccc(OC)cc1`, the PF came out at 130 and the logPF turned out to be 2.11.

Turning to `COC(=O)/C=C/C(C)=C/c1ccc2c(c1)OCO2`, the PF result is “inactive” and the logPF result is “inactive”.

Regarding `CCC(/C=C/CN1CCCCC1)=C\c1ccc2c(c1)OCO2`, the PF was 70 and the logPF turned out to be 1.85.

For the compound `CC(/C=C/C(=O)N1CCC(O)CC1)=C\c1ccc2c(c1)OCO2`, the PF was 210 and the logPF turned out to be 2.32.

As for `CCCC(/C=C/C(=O)N1CCN(C)CC1)=C\c1ccc2c(c1)OCO2`, the PF came out at 60 and the logPF came to 1.78.

As to `CCC(/C=C/C(=O)N1CCCCC1)=C\c1ccc(OC)c(OC)c1`, the PF came to 220 and the logPF was 2.34.

As for `CCC(/C=C/C(=O)Nc1ccccc1C)=C\c1ccc2c(c1)OCO2`, the PF is 60 and the logPF was found to be 1.78.

Consider `CCC(/C=C/C(=O)Nc1ccccc1OC)=C\c1ccc2c(c1)OCO2`, for which the PF amounted to 60 and the logPF amounted to 1.78.

For `CCC(/C=C/C(=O)O)=C\c1ccc2c(c1)OCO2`, the PF turned out to be 10 and the logPF was 1.

On to `CC(/C=C/C(=O)N1CCCCC1)=C\c1ccc2c(c1)OCO2`, for which the PF came to 180 and the logPF was found to be 2.25.

With `CCCCC(/C=C/C(=O)N1CCN(C)CC1)=C\c1ccc2c(c1)OCO2`, the PF is 160 and the logPF is 2.2.

As to `CC(/C=C/C(=O)N1CCOCC1)=C\c1ccc2c(c1)OCO2`, the PF entry was “inactive” and the logPF result was “inactive”.

On to `CC(/C=C/C(=O)N1CCN(C)CC1)=C\c1ccc2c(c1)OCO2`, for which the PF was determined as 130 and the logPF stood at 2.11.

Take `CC(/C=C/C(=O)N1CCCC1)=C\c1ccc2c(c1)OCO2` (stereo in doubt; 12): the PF came to 130 and the logPF worked out at 2.11.

Regarding `CC/C=C/C(=C/c1ccc2c(c1)OCO2)CC`, the PF came out at 20 and the logPF was 1.3.

For `CCOC(=O)/C=C/C(C)=C/c1ccc2c(c1)OCO2`, the PF entry is “inactive” and the logPF entry was “inactive”.

As to `CCCC(/C=C/C(=O)N1CCCCC1)=C\c1ccc(OC)cc1`, the PF is 210 and the logPF was 2.32.

Turning to `O=C(/C=C/C=C/c1ccc2c(c1)OCCO2)N1CCOCC1`, the PF was 40 and the logPF was found to be 1.6.

Consider `CCCCC(/C=C/C(=O)N1CCCCC1)=C\c1ccc2c(c1)OCO2`, for which the PF turned out to be 200 and the logPF was determined as 2.3.

`CC(/C=C/C(=O)N1CCCC1)=C\c1ccc2c(c1)OCO2` (stereo in doubt; 3): the PF worked out at 110 and the logPF amounted to 2.04.

Consider `COc1ccc(/C=C(C)/C=C/C(=O)N2CCCCC2)cc1`, for which the PF was 130 and the logPF is 2.11.

Regarding `CCC(/C=C/C(=O)NCC(C)C)=C\c1ccc2c(c1)OCO2`, the PF was 270 and the logPF came to 2.43.
